Data set [1] in a line: MTS cytotoxicity assay, HepG2. Format: cell-based, human. The conditions noted are these: human. The procedure: (§1) The MTS (Promega) reduction assay was used according to manufacturer's guidelines to assess Vero (ATCC […]) and HepG2 (ATCC HB-8065) cell viability. […] Carbonyl cyanide m-chlorophenylhydrazone (CCCP) was used as a cytotoxic positive control. Cytotoxicity was determined twice in independent experiments.

Data set [2] in a line: MTS cytotoxicity assay, Vero. Format: cell-based. The note with it: African green monkey. The procedure:
as §1
On the technique in general: Tetrazolium dyes change colour on reduction, which living cells bring about.

Another data set has as its system M. tuberculosis H37Rv. In words: microbe, parasite or virus in culture. The conditions noted are these: Mycobacterium tuberculosis, H37RV, 120 h, 5 days. Format: cell-based.
In a further data set the target is ClpP1P2 (Mycolicibacterium smegmatis, UniProt A0R197+A0R198). In words: ClpP1P2 inhibition whole-cell RFP-SsrA reporter assay. The note with it: read-out: M. smegmatis ΔprcAB IC50 (μM) for ClpP1P2; whole-cell RFP-SsrA reporter, 3 h incubation. Background: Reporter assays use an easily measured gene product as a stand-in for the process of interest.
A further data set has as its system Mycobacterium bovis BCG. Kind of data set: microbe, parasite or virus in culture. The class given is cell-based. The note with it: Mycobacterium tuberculosis variant bovis BCG, read-out: MIC50 for Mycobacterium bovis BCG.
A further data set has as its system M. smegmatis wild-type. In words: Growth inhibition, M. smegmatis wild type. Format: cell-based. The conditions noted are these: Mycolicibacterium smegmatis; wild-type strain.
For the next data set, the system named is M. smegmatis ΔprcAB. Format: cell-based. The conditions noted are these: 24 h exposure, OD600; concentration inhibiting 50% of growth.

SMILES strings stand for the structures. Converted amounts (≈) assume the structure as drawn.

ClpP1P2, sequence (A0R198 4-203): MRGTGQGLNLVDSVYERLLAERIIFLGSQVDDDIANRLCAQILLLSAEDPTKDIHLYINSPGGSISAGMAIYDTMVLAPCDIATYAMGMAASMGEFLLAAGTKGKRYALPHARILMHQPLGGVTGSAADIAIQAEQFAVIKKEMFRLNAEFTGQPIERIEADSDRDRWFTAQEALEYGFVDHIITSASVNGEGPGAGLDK
ClpP1P2, sequence (A0R197 17-218): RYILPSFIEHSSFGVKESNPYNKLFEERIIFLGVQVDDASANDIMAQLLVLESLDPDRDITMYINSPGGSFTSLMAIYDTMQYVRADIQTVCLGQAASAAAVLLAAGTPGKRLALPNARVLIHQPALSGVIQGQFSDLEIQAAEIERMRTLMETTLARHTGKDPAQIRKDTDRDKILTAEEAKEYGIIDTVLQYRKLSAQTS

In the case of `CC(C)C[C@H](NC(=O)[C@H](Cc1ccccc1)NC(=O)c1cnccn1)B(O)O` [Compound 1, bortezomib, reference compound], the concentration for 50% growth inhibition (GI50) in data set [1] amounted to 400 µM; in data set [2] it was 250 µM. Besides, the figures for the MIC50 with M. tuberculosis H37Rv (read-out: MIC50 (μM) against M. tuberculosis H37Rv), in the data set with Mycobacterium bovis BCG and with M. smegmatis wild-type were 4.3 ± 1.3 µM (≈ 1.65 µg/mL), 1.8 µM (≈ 0.692 µg/mL) and 5 µM (≈ 1.92 µg/mL), respectively. In the data set on M. tuberculosis H37Rv (read-out: MIC90 (μM) against M. tuberculosis H37Rv), the MIC90 was 12 ± 0.5 µM (≈ 4.61 µg/mL). The concentration for half-maximal inhibition (IC50) on ClpP1P2 stood at 6 ± 0.5 µM. The “M. smegmatis ΔprcAB MIC50” value in the data set on M. smegmatis ΔprcAB is 6 ± 0 µM.

For orientation: GI50 means the concentration that inhibits growth by half. As a reminder, the IC50 is the point on the concentration scale where inhibition reaches its midpoint.

The values are drawn from paper PMC5404560, “Towards Selective Mycobacterial ClpP1P2 Inhibitors with Reduced Activity against the Human Proteasome” (Antimicrobial Agents and Chemotherapy, 2017).
